The source of these data is the Bradley open melting point set (2014).

Values joined by “and” are separate entries in the source; they are usually repeats but may differ in a detail not shown here. Equal entries are not always repeated.

By melting point is commonly meant the temperature of the solid-liquid transition. `Cc1ccc(S(=O)(=O)Cl)cc1` [p-toluenesulfonyl_chloride] registered a melting point of 69 °C.
In turn, `C[C@@H](O)[C@@H](N)C(=O)O` [D-allo-threonine] gave a melting point of 278 °C.
As for `COc1ccc(/C=C/C=O)cc1` [trans-4-methoxycinnamaldehyde], the figure is 58 °C; as for `c1cc(-c2ccncc2)ccn1` [4,4'-bipyridine], 113 °C; as for `CC(=O)C(=Cc1ccc(-c2cccc([N+](=O)[O-])c2)o1)C(C)=O`, 154 °C.
In the case of `c1ccc2c(c1)[nH]c1ccccc12` [carbazole], the melting point was 247 °C and 243 °C.
In the case of `Brc1cc(Br)c(Br)cc1Br` [1,2,4,5-Tetrabromobenzene], the melting point was 182 °C.
The result for `C=Cc1ccc(N)cc1` [4-aminostyrene] reads 24 °C; that for `O=C(OCc1ccccc1)c1ccccc1` [benzyl benzoate], 19 °C; that for `C=C(C)CC(C)(C)C` [2,4,4-Trimethylpent-1-ene], -94 °C.
With `CCCCCCCCCCc1ccccc1` [decylbenzene], the melting point was -14 °C.
The compound `NC(CN(Cc1ccccc1)c1ccccc1)=NO` [Cetoxime] returned a melting point of 107 °C.
In the case of `Nc1cccc2ccccc12` [1-aminonaphthalene], the melting point was 49 °C.
`OCc1ccccc1I` [o-iodobenzyl_alcohol] registered a melting point of 92 °C.
`COc1cccc(B(O)O)c1` [3-methoxybenzeneboronic acid]: the melting point was determined as 160 °C.
Consider `CC(=O)c1ccccc1[N+](=O)[O-]` [1-(2-Nitrophenyl)ethanone], for which the melting point came out at 23 °C.
Regarding `COc1cc(Cl)nc(OC)n1` [6-chloro-2,4-dimethoxypyrimidine], the melting point stood at 72 °C.
The compound `CC(C)(C)OC(=O)N[C@@H](Cc1ccc(Br)cc1)C(=O)O` [N-boc-4-bromo-L-phenylalanine] gave a melting point of 119 °C.
As for `COc1ccc(I)cc1N` [5-iodo-2-methoxyaniline], the figure is 86 °C.
For `CCCCOc1ccccc1` [butyl_phenyl_ether], the melting point was -19 °C.
With `CNC(=O)N(C)c1nnc(C(F)(F)F)s1` [Thiazafluron], the melting point is 136 °C.
Compound `N#Cc1ccc2c(c1)N(CCCN1CCC(O)CC1)c1ccccc1S2` [Propericiazine] gave a melting point of 116 °C.
On to `CS(=O)(=O)c1ccccc1` [methyl phenyl sulfone], for which the melting point is 87 °C.
With `ClC1C(Cl)C(Cl)C(Cl)C(Cl)C1Cl` (stereo not given) [lindane], the melting point came out at 114 °C.
Regarding `COc1ccc(C(=O)OC(=O)c2ccc(OC)cc2)cc1` [4-methoxybenzoic anhydride], the melting point was 97 °C.
The compound `Cc1ccc(C)c(/C=C/c2ccc(-c3ccc(/C=C/c4cc(C)ccc4C)cc3)cc2)c1` [4,4'-bis(2,5-dimethylstyryl)biphenyl] came in with a melting point of 198 °C.
Consider `CCBr` [Bromoethane], for which the melting point is -119 °C.
Consider `CCCCCCCCSCCCCCCCC` [di-n-octyl sulfide], for which the melting point amounted to 1 °C.
Take `CCc1ccc(N)cc1` [4-ethylaniline]: the melting point is -5 °C.
Turning to `c1ccc(Oc2ccccc2)cc1` [Diphenyl ether], the melting point was 27 °C.
As for `Cc1cc([N+](=O)[O-])ccc1Cl` [2-chloro-5-nitrotoluene], the figure is 43 °C; as for `Nc1ccc2cc(O)ccc2c1` [6-Amino-2-naphthalenol], 185 °C.
The result for `Cc1cccc(C=O)n1` [6-methylpyridine-2-carboxaldehyde] reads 31 °C; that for `CC(C)Cl` [2-chloropropane], -117 °C; that for `CC(O)c1c(F)c(F)c(F)c(F)c1F` (stereo not given) [1-(pentafluorophenyl)ethanol], 33 °C.
As for `Cn1c(=O)c2[nH]cnc2n(C)c1=O` [Theophylline], the figure is 270 °C.
As for `CC(=O)c1cccc(O)c1` [3-hydroxyacetophenone], the melting point was 89 °C.
Compound `O=Cc1ccc(C(F)(F)F)cc1` [4-(trifluoromethyl)benzaldehyde] showed a melting point of 1.5 °C.
Compound `Nc1nc(-c2ccc(Br)cc2)cs1` [2-amino-4-(4-bromophenyl)thiazole] gave a melting point of 184 °C.
In turn, `CC(=O)OCC1OC(OC2C(COC(C)=O)OC(OC(C)=O)C(OC(C)=O)C2OC(C)=O)C(OC(C)=O)C(OC(C)=O)C1OC(C)=O` (stereo not given) registered a melting point of 138 °C.
As for `COc1ccccc1OCC(O)CO` (stereo not given) [3-(2-methoxyphenoxy)-1,2-propanediol], the figure is 81 °C; as for `O=C(O)c1c(Cl)cccc1[N+](=O)[O-]` [2-chloro-6-nitrobenzoic acid], 164 °C; as for `[C-]#[N+]C1CCCCC1` [Cyclohexyl isocyanide], 6 °C.
`CC(Br)CBr` (stereo not given) [1,2-dibromopropane] came in with a melting point of -55 °C.
For the compound `CC(C)(C)N` [tert-butylamine], the melting point was -67 °C.
For the compound `COc1ccc(B(O)O)c(C(F)(F)F)c1` [4-methoxy-2-(trifluoromethyl)benzeneboronic acid], the melting point was found to be 170 °C.
Compound `O=C(CO)[C@H](O)[C@@H](O)[C@H](O)CO` [D-Sorbose] yielded a melting point of 95 °C.
`COC(=O)C1C(c2ccccc2)C(C#N)=C(C(SC)SC)C1(O)c1ccccc1` (stereo not given): the melting point worked out at 165 °C.
The compound `Clc1cc(Cl)c(Cl)cc1Cl` [1,2,4,5-tetrachlorobenzene] showed a melting point of 140 °C.
The compound `CCCCCCCCCCC(=O)O` [Undecanoic acid] registered a melting point of 28.5 °C.
The compound `O=Cc1ccc([N+](=O)[O-])cc1[N+](=O)[O-]` [2,4-dinitrobenzaldehyde] returned a melting point of 66 °C.
The result for `C=C(C)CC(C)(C)C` [2,4,4-trimethyl-1-pentene] reads -93 °C; that for `Cc1ncc([N+](=O)[O-])n1CCO` [Metronidazole], 160 °C.
`CCCCCC=O` [hexanaldehyde] gave a melting point of -56 °C.
`CC1(C)OC(=O)NC1=O` [5,5-dimethyloxazolidine-2,4-dione]: the melting point came to 79 °C.
Take `BrC(Br)c1ccc(C(Br)Br)cc1` [1,4-bis(dibromomethyl)benzene]: the melting point is 168 °C.
Take `CC(C)c1ccc(C(=O)O)cc1` [4-isopropylbenzoic acid]: the melting point worked out at 119 °C.
The result for `ClCCCCCCl` [1,5-dichloropentane] reads -72 °C.
As for `Cc1cccc2c(O)cc(C(F)(F)F)nc12` [4-hydroxy-8-methyl-2-(trifluoromethyl)quinoline], the figure is 128 °C.
Turning to `O=C=NCCCCCCN=C=O` [1,6-Diisocyanatohexane], the melting point is -55 °C.
`C[Si](C)(C)O[Si](C)(C)C` [hexamethyldisiloxane]: the melting point is -67 °C.
In turn, `Cc1ccc(B(O)O)cc1F` [3-fluoro-4-methylbenzeneboronic acid] gave a melting point of 234 °C.
As for `CN(C)CC(=O)N1c2ccccc2Sc2ccccc21` [ahistan], the figure is 144 °C.
As for `COc1cc(N)c(Cl)cc1C(=O)NC1CCN(CCCOc2ccc(F)cc2)CC1OC` (stereo not given) [Cisapride], the figure is 110 °C; as for `CNC(=O)c1cc([N+](=O)[O-])cc([N+](=O)[O-])c1` [benzamide, N-methyl-3,5-dinitro-], 149 °C.
The result for `Oc1ccccc1I` [2-iodophenol] reads 43 °C and 38.5 °C; that for `CN1C(=O)c2ccccc2C1C=C(c1ccccc1)c1ccccc1` (stereo not given) [3-(2,2-Diphenylethenyl)-2-methylisoindolin-1-one], 147 °C.
With `Cc1cccc(C)c1` [m-xylene], the melting point is -47 °C.
For the compound `O=C1c2ccccc2-c2ccccc21` [9H-Fluoren-9-one], the melting point was determined as 83 °C.
The compound `CC(=O)Nc1cc(C)ccc1O` [2'-hydroxy-5'-methylacetanilide] returned a melting point of 149 °C.
Turning to `COc1ccc(C=O)cc1OC` [veratraldehyde], the melting point was determined as 44 °C.
`O=C1Nc2ccccc2C1=O` [Isatin]: the melting point came out at 203 °C.
`CCOC(=O)O[C@]1(C(=O)OCCl)CC[C@H]2[C@@H]3CCC4=CC(=O)C=C[C@]4(C)[C@H]3[C@@H](O)C[C@@]21C` [Loteprednol] came in with a melting point of 222 °C.
As for `C/C(=C(/C)c1ccccc1)c1ccccc1` [[(1E)-1-Methyl-2-phenyl-1-propenyl]benzene], the figure is 65 °C.
The result for `O=Cc1cccc(C=O)c1` [isophthalaldehyde] reads 89 °C; that for `CCN(C)C` [N,N-Dimethylethanamine], -140 °C.
The result for `CCCCCN` [Amylamine] reads -55 °C; that for `CC(C)(C)OC(=O)NCC(=O)N(Cc1ccco1)C(C(=O)NCc1ccccc1)c1ccccc1` (stereo not given) [Ugi product 108C (UC)], 147 °C.
Consider `Cc1ccc(S)c(S)c1` [4-Methylbenzene-1,2-dithiol], for which the melting point is 31 °C.
On to `Oc1cc(Cl)c(Cl)cc1Cl` [2,4,5-trichlorophenol], for which the melting point is 69 °C and 67 °C and 68 °C.
The result for `OC(c1ccc(Cl)cc1)(c1ccc(Cl)cc1)c1ccc(Cl)cc1` [4,4',4''-trichlorotrityl alcohol] reads 96 °C; that for `CC(=O)c1ccc(O)c(C(N)=O)c1` [5-acetylsalicylamide], 221 °C; that for `O=CC1CCCCC1` [cyclohexanecarbaldehyde], 34.5 °C.
`O=C1C=CC(=O)N1c1ccc(Br)cc1` [N-(4-bromophenyl)maleimide] returned a melting point of 129 °C.
In the case of `c1ccc2c3c([nH]c2c1)CCCC3` [1,2,3,4-tetrahydrocarbazole], the melting point is 119 °C.
`N#CCc1cccc(O)c1` [m-hydroxy_phenylacetonitrile] registered a melting point of 53 °C.
In the case of `CC(C)(C)[Si](C)(C)Oc1cccc(B(O)O)c1` [3-(tert-butyldimethylsiloxy)benzeneboronic acid], the melting point was found to be 89 °C.
In turn, `CC(=O)Oc1ccccc1C=O` [o-acetoxybenzaldehyde] had a melting point of 38 °C.
Regarding `O=Cc1ccc(Cl)cc1Cl` [2,4-dichlorobenzaldehyde], the melting point was found to be 73 °C.
Compound `Cc1cccc([N+](=O)[O-])c1` [m-nitrotoluene] yielded a melting point of 16 °C.
